Source: patent publication US9518022B2, “Anti-HIV compounds” (priority 2014, dated 2016)
Like-named read-outs stand apart in the source and are kept apart here.

Experiment: Cytotoxicity assay (AlamarBlue) in mock infected MT-2 cells
Assay type: cell-based
Details: human
Experimental: The present assay was used to screen candidate antiviral compounds by quantification of virus spread and production over several rounds of infection in vitro. MT-2, a HIV-1 permissive human T-cell line, was seeded in microtiter plates and was simultaneously treated with serially diluted compound and inoculated with a HIV-1 NL4-3 viral clone engineered to express Renilla luciferase in place of Nef. Following treatment, the culture was incubated for 96 hours. After the incubation, media was collected and used to estimate relative infectivity on the indicator cell line, TZM-bl. Additionally, viral spread was quantified by measuring luciferase activity via a commercially available luciferase substrate. In parallel, MT-2 cells were seeded and inoculated with mock virus in the presence of serially diluted compound. Compound toxicity was quantified 96 hours after treatment with AlamarBlue.
MT-2 (NIH Aids reagent program 237) cells were grown and maintained in an incubator at 37° C. with 5% CO2 using a basal medium of RPMI-1640 supplemented with 10% FBS. Cells were seeded in 100 μl at 2×10^4 cells/well in white walled 96-well microtiter plates. Candidate compounds were 3-fold serially diluted in the appropriate solvent. Solvent without compound was used as a no drug reference. Cells were inoculated at a multiplicity of 0.027 with an HIV-1 NL4-3 virus stock engineered to express Renilla luciferase in place of Nef. Diluted virus stock was first added to serially diluted compound. Compound and virus were delivered to cells in an equal volume (100 μl) and treated cultures were returned to the incubator for 96 hours. In parallel, plates for cytotoxicity estimates were prepared in the same way except cells were plated in clear walled 96-well microtiter plates and were mock infected.
At 96 hours post treatment, 20 μl AlamarBlue proliferation reagent was added to 200 μl treated and mock infected cultures and incubated for 3 hours at 37° C. with 5% CO2 then read at 545, 590 nm on fluorescence plate reader (Biotek).
For all assays, data was imported into Accelrys Assay Explorer 3.3. In Assay Explorer, % inhibition (antiviral or cytotoxicity) was calculated using the solvent control as a reference by the following equation: 1−(SignalCompound/SignalReference). The % Inhibition and compound concentration data was fitted using the following 4-parameter logistic model (Assay Explorer model 42):
[formula] where X is compound concentration, Y is % inhibition, D is the maximum % Inhibition (constrained to 100%), C is IC50 value or inflection point, B is the hill slope, and A is the minimum % inhibition (constrained to 0%). The IC50 value is reported as the EC50 or CC50 depending on the assay endpoint. EC50 represents the effective concentration at which virus replication is inhibited by 50 percent. CC50 represents the concentration that results in the death of 50 percent of the host cells. The selectivity or therapeutic index (SI or TI), is the ratio of CC50 over EC50 and represents the relative effectiveness in inhibiting viral replication compared to inducing cell death.

[1] = mock infected MT-2 cells, 96 hours, AlamarBlue, read-out: CC50

Compound	CC50 at 96 h	CC50 at 96 h [1]
COc1cc2c(cc1OCc1ccccc1)CCNC2/C=C/c1ccc(-n2ccnc2C)cc1 (stereo not drawn) [DM, 6-(benzyloxy)-7-methoxy-1-[(E)-2-[4-(2-methyl-1H-imidazol-1-yl)phenyl]ethenyl]-1,2,3,4-tetrahydroisoquinoline]	21.1 µM	
COc1cccc(-c2ncc(/C=C/C3NCCc4cc(OCc5ccccc5)c(OC)cc43)cn2)c1 (stereo not drawn) [DN, 6-(benzyloxy)-7-methoxy-1-[(E)-2-[2-(3-methoxyphenyl)pyrimidin-5-yl]ethenyl]-1,2,3,4-tetrahydroisoquinoline]	17.1 µM	
CCN1CCN(c2ccc(/C=C/C3NCCc4cc(OCc5ccccc5)c(OC)cc43)cc2)CC1 (stereo not drawn) [DO, 6-(benzyloxy)-1-[(E)-2-[4-(4-ethylpiperazin-1-yl)phenyl]ethenyl]-7-methoxy-1,2,3,4-tetrahydroisoquinoline]	3.61 µM	
COc1cc2c(cc1OCc1ccccc1)CCNC2/C=C/c1cn(C)c2ncccc12 (stereo not drawn) [DP, 6-(benzyloxy)-7-methoxy-1-[(E)-2-{1-methyl-1H-pyrrolo[2,3-b]pyridin-3-yl}ethenyl]-1,2,3,4-tetrahydroisoquinoline]	1.3 µM	
COc1cc2c(cc1OCc1ccccc1)CCNC2/C=C/c1cccc(-c2ccncc2)c1 (stereo not drawn) [DQ, 6-(benzyloxy)-7-methoxy-1-[(E)-2-[3-(pyridin-4-yl)phenyl]ethenyl]-1,2,3,4-tetrahydroisoquinoline]	4.4 µM	
COc1cc2c(cc1OCc1ccccc1)CCNC2/C=C/c1cscn1 (stereo not drawn) [DR, 6-(benzyloxy)-7-methoxy-1-[(E)-2-(1,3-thiazol-4-yl)ethenyl]-1,2,3,4-tetrahydroisoquinoline]	25.4 µM	
COc1cc2c(cc1OCc1ccccc1)CCNC2/C=C/c1ccc(-c2cncnc2)cc1 (stereo not drawn) [DS, 6-(benzyloxy)-7-methoxy-1-[(E)-2-[4-(pyrimidin-5-yl)phenyl]ethenyl]-1,2,3,4-tetrahydroisoquinoline]	7.39 µM	
COc1cc2c(cc1OCc1ccccc1)CCNC2/C=C/c1ccc(-n2cncn2)cc1 (stereo not drawn) [DT, 6-(benzyloxy)-7-methoxy-1-[(E)-2-[4-(1H-1,2,4-triazol-1-yl)phenyl]ethenyl]-1,2,3,4-tetrahydroisoquinoline]	7.39 µM	
COc1cc2c(cc1OCc1ccccc1)CCNC2/C=C/c1cc2ccccc2s1 (stereo not drawn) [DU, 1-[(E)-2-(1-benzothiophen-2-yl)ethenyl]-6-(benzyloxy)-7-methoxy-1,2,3,4-tetrahydroisoquinoline]	16.3 µM	
COc1cc2c(cc1OCc1ccccc1)CCNC2/C=C/c1nccs1 (stereo not drawn) [DV, 6-(benzyloxy)-7-methoxy-1-[(E)-2-(1,3-thiazol-2-yl)ethenyl]-1,2,3,4-tetrahydroisoquinoline]	21.8 µM	
COc1cc2c(cc1OCc1ccccc1)CCNC2/C=C/c1ccc(N2CCN(C)CC2)cc1 (stereo not drawn) [DW, 6-(benzyloxy)-7-methoxy-1-[(E)-2-[4-(4-methylpiperazin-1-yl)phenyl]ethenyl]-1,2,3,4-tetrahydroisoquinoline]	2.31 µM	
COc1cc2c(cc1OCc1ccccc1)CCNC2/C=C/c1ccccc1N1CCCCC1 (stereo not drawn) [DX, 6-(benzyloxy)-7-methoxy-1-[(E)-2-[2-(piperidin-1-yl)phenyl]ethenyl]-1,2,3,4-tetrahydroisoquinoline]	5.38 µM	
COc1cc2c(cc1OCc1ccccc1)CCNC2/C=C/c1scnc1C (stereo not drawn) [DY, 6-(benzyloxy)-7-methoxy-1-[(E)-2-(4-methyl-1,3-thiazol-5-yl)ethenyl]-1,2,3,4-tetrahydroisoquinoline]	21.6 µM	
COc1cc2c(cc1OCc1ccccc1)CCNC2/C=C/c1ccc(-c2ccccn2)cc1 (stereo not drawn) [DZ, 6-(benzyloxy)-7-methoxy-1-[(E)-2-[4-(pyridin-2-yl)phenyl]ethenyl]-1,2,3,4-tetrahydroisoquinoline]	5.8 µM	
COc1cc2c(cc1OCc1ccccc1)CCNC2/C=C/c1ccc(N2CCCCC2)cc1 (stereo not drawn) [EA, 6-(benzyloxy)-7-methoxy-1-[(E)-2-[4-(piperidin-1-yl)phenyl]ethenyl]-1,2,3,4-tetrahydroisoquinoline]	4.8 µM	
COc1cc2occc2cc1/C=C/C1NCCc2cc(OCc3ccccc3)c(OC)cc21 (stereo not drawn) [EB, 6-(benzyloxy)-7-methoxy-1-[(E)-2-(6-methoxy-1-benzofuran-5-yl)ethenyl]-1,2,3,4-tetrahydroisoquinoline]	6 µM	
COc1cc2c(cc1OCc1ccccc1)CCNC2/C=C/c1cccc(-c2ncco2)c1 (stereo not drawn) [EC, 6-(benzyloxy)-7-methoxy-1-[(E)-2-[3-(1,3-oxazol-2-yl)phenyl]ethenyl]-1,2,3,4-tetrahydroisoquinoline]	7.5 µM	
COc1cc2c(cc1OCc1ccccc1)CCNC2/C=C/c1ccc(-c2ncco2)cc1 (stereo not drawn) [ED, 6-(benzyloxy)-7-methoxy-1-[(E)-2-[4-(1,3-oxazol-2-yl)phenyl]ethenyl]-1,2,3,4-tetrahydroisoquinoline]	7.5 µM	
CCOC(=O)c1coc(-c2ccc(/C=C/C3NCCc4cc(OCc5ccccc5)c(OC)cc43)cc2)n1 (stereo not drawn) [EE, ethyl 2-{4-[(E)-2-[6-(benzyloxy)-7-methoxy-1,2,3,4-tetrahydroisoquinolin-1-yl]ethenyl]phenyl}-1,3-oxazole-4-carboxylate]	5.9 µM	
CCOC(=O)c1coc(-c2cccc(/C=C/C3NCCc4cc(OCc5ccccc5)c(OC)cc43)c2)n1 (stereo not drawn) [EF, ethyl 2-{3-[(E)-2-[6-(benzyloxy)-7-methoxy-1,2,3,4-tetrahydroisoquinolin-1-yl]ethenyl]phenyl}-1,3-oxazole-4-carboxylate]	5.9 µM	
COc1cc2c(cc1OCc1ccccc1)CCNC2/C=C/c1ccc2c(c1)OCC2 (stereo not drawn) [EG, 6-(benzyloxy)-1-[(E)-2-(2,3-dihydro-1-benzofuran-6-yl)ethenyl]-7-methoxy-1,2,3,4-tetrahydroisoquinoline]	19.3 µM	
COc1cc(OC)c(/C=C/C2NCCc3cc(OCc4ccccc4)c(OC)cc32)cc1C (stereo not drawn) [EH, 6-(benzyloxy)-1-[(E)-2-(2,4-dimethoxy-5-methylphenyl)ethenyl]-7-methoxy-1,2,3,4-tetrahydroisoquinoline]	3.59 µM	
COc1ccc(/C=C/C2NCCc3cc(OCc4ccccc4)c(OC)cc32)cc1C (stereo not drawn) [EI, 6-(benzyloxy)-7-methoxy-1-[(E)-2-(4-methoxy-3-methylphenyl)ethenyl]-1,2,3,4-tetrahydroisoquinoline]	11.8 µM	
COc1cccc(/C=C/C2NCCc3cc(OCc4ccccc4)c(OC)cc32)c1 (stereo not drawn) [EJ, 6-(benzyloxy)-7-methoxy-1-[(E)-2-(3-methoxyphenyl)ethenyl]-1,2,3,4-tetrahydroisoquinoline]		10 µM
COc1ccc(OC)c(/C=C/C2NCCc3cc(OCc4ccccc4)c(OC)cc32)c1 (stereo not drawn) [EK, 6-(benzyloxy)-1-[(E)-2-(2,5-dimethoxyphenyl)ethenyl]-7-methoxy-1,2,3,4-tetrahydroisoquinoline]		3.6 µM
COc1cc2c(cc1OCc1ccccc1)CCNC2/C=C/c1ccc(OC)c(C)c1C (stereo not drawn) [EL, 6-(benzyloxy)-7-methoxy-1-[(E)-2-(4-methoxy-2,3-dimethylphenyl)ethenyl]-1,2,3,4-tetrahydroisoquinoline]	3.25 µM	
COc1ccc(/C=C/C2NCCc3cc(OCc4ccccc4)c(OC)cc32)cc1CN1CCCCC1 (stereo not drawn) [EM, 6-(benzyloxy)-7-methoxy-1-[(E)-2-[4-methoxy-3-(piperidin-1-ylmethyl)phenyl]ethenyl]-1,2,3,4-tetrahydroisoquinoline]	1.8 µM	
